Molecular target: T1, Met kinase (Homo sapiens, UniProt P08581)
T1 construct: 6His (N); purchased Upstate 14-526; host or cells: Sf21 insect cells (S. frugiperda), baculovirus
Assay: Met kinase inhibition, flashplate method
Type: biochemical
Conditions: 1 μM ATP, substrate pAGLT, 3 hrs at room temperature, read-out: IC50 (enzyme)
Excerpt: According to the manufacturer's data (Met, active, upstate, catalogue No. 14-526), Met kinase is expressed for the purposes of protein production in insect cells (Sf21; S. frugiperda) and subsequent affinity-chromatographic purification as “N-terminal 6His-tagged” recombinant human protein in a baculovirus expression vector.
The test plates used are 96-well Flashplate® microtitre plates from Perkin Elmer (Cat. No. SMP200). The components of the kinase reaction described below are pipetted into the assay plate. The Met kinase and the substrate poly Ala-Glu-Lys-Tyr, (pAGLT, 6:2:5:1), are incubated for 3 hrs at room temperature with radioactively labelled ^33P-ATP in the presence and absence of test substances in a total volume of 100 μl. The reaction is terminated using 150 μl of a 60 mM EDTA solution. After incubation for a further 30 min at room temperature, the supernatants are filtered off with suction, and the wells are washed three times with 200 μl of 0.9% NaCl solution each time. The measurement of the bound radioactivity is carried out by means of a scintillation measuring instrument (Topcount NXT, Perkin-Elmer).
The full value used is the inhibitor-free kinase reaction. This should be approximately in the range 6000-9000 cpm. The pharmacological zero value used is staurosporin in a final concentration of 0.1 mM. The inhibitory values (IC50) are determined using the RS1_MTS program.
Kinase Reaction Conditions per Well: • 30 μl of assay buffer • 10 μl of substance to be tested in assay buffer with 10% of DMSO • 10 μl of ATP (final concentration 1 μM cold, 0.35 μCi of ^33P-ATP) • 50 μl of Met kinase/substrate mixture in assay buffer; • (10 ng of enzyme/well, 50 ng of pAGLT/well)
Solutions Used: • Assay Buffer: • 50 mM HEPES • 3 mM magnesium chloride • 3 μM sodium orthovanadate • 3 mM manganese(II) chloride • 1 mM dithiothreitol (DTT) • pH=7.5 (to be set using sodium hydroxide) • Stop Solution: • 60 mM Titriplex III (EDTA) • ^33P-ATP: Perkin-Elmer; • Met kinase: Upstate, Cat. No. 14-526, Stock 1 μg/10 μl; spec. activity 954 U/mg; • Poly-Ala-Glu-Lys-Tyr, 6:2:5:1:Sigma Cat. No. P1152

T1 sequence (P08581 25-1390): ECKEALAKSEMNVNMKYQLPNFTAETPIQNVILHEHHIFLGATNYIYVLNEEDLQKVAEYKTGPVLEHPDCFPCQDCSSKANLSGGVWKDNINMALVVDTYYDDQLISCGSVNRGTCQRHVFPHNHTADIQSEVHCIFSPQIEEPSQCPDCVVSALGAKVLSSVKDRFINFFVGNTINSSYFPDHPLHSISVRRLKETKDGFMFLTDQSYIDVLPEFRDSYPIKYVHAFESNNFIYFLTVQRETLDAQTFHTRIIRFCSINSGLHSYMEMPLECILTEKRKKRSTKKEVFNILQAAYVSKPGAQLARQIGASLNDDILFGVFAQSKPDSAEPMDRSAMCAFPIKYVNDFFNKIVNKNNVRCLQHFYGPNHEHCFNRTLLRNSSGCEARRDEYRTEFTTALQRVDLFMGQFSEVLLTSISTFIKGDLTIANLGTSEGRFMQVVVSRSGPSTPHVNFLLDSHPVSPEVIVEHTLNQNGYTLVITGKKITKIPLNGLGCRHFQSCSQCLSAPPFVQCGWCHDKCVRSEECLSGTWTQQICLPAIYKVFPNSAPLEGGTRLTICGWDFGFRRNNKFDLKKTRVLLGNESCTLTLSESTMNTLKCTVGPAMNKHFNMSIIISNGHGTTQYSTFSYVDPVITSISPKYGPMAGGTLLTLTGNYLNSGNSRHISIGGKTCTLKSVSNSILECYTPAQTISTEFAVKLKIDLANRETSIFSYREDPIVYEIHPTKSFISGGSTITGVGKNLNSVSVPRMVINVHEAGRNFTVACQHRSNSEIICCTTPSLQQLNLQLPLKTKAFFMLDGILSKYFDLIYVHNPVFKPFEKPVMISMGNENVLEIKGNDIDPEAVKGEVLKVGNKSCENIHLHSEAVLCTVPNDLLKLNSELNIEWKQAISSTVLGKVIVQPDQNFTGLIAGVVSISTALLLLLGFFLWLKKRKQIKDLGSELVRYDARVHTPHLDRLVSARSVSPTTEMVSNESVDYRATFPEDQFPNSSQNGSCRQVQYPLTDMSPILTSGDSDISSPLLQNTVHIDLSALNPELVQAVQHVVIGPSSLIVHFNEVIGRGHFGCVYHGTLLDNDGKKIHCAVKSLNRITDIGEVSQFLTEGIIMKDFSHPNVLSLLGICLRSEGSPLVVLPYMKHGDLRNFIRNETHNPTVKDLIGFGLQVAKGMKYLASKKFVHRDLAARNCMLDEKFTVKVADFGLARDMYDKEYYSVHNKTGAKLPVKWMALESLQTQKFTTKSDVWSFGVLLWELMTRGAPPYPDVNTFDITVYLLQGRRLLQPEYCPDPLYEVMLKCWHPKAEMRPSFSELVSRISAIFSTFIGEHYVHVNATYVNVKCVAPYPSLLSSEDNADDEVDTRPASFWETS

| Compound | IC50 [nM] |
| --- | --- |
| CCNC(=O)Nc1cccc(CN2N=C(c3cc(Cl)ccc3O)CSC2=O)c1 [Compound A2] | 10 to 1000 |
| CNCCNC(=O)Nc1cccc(CN2N=C(c3ccc(C#N)cc3)CSC2=O)c1 [Compound A10] | 10 to 1000 |
| CN(C)C(=O)Nc1cccc(CN2N=C(c3cc(Cl)ccc3O)CSC2=O)c1 [Compound A12] | 10 to 1000 |

Continued, values first:

| IC50 [nM] | Compound |
| --- | --- |
| 10 to 1000 | CN1CCC(CNC(=O)Nc2cccc(CN3N=C(c4ccc(Cl)cc4)CSC3=O)c2)C1 (centres unmarked) [Compound A1, 1-{3-[5-(4-chlorophenyl)-2-oxo-6H-1,3,4-thiadiazin-3-ylmethyl]phenyl}-3-(1-methylpyrrolidin-3-ylmethyl)urea] |
| 10 to 1000 | CCN(CC)CCCNC(=O)Nc1cccc(CN2N=C(c3ccc(Cl)cc3)CSC2=O)c1 [Compound A3] |
| 10 to 1000 | C[C@H](O)CNC(=O)Nc1cccc(CN2N=C(c3ccc(Cl)cc3)CSC2=O)c1 [Compound A4] |
| 10 to 1000 | O=C(NCCO)Nc1cccc(CN2N=C(c3ccc(Cl)cc3)CSC2=O)c1 [Compound A5] |
| 10 to 1000 | CCOC(=O)C(=O)Nc1cccc(CN2N=C(c3ccc(Cl)cc3)CSC2=O)c1 [Compound A9, ethyl N-{3-[5-(4-chlorophenyl)-2-oxo-6H-1,3,4-thiadiazin-3-ylmethyl]phenyl}oxalaminate] |

Source: US7534785B2, “3,6-dihydro-2-oxo-6H-1,3,4,-thiadiazine derivatives” (Merck Patent Gesellschaft, priority 2005, dated 2009)
